“Also recorded” adds a separate entry of the source.

Data on one compound can be found in patent publication US20240182893A1, “INHIBITION OF FGR REDUCES FIBROSIS” (UNIVERSITY OF PITTSBURGH-OF THE COMMONWEALTH SYSTEM OF …, priority 2021, published 2024).

This assay deals with T1, Fgr (Mus musculus, UniProt P14234).
T1 construct: endogenous in cells; host or cells: tdTOMp16+ mouse bone marrow stromal (MSC) cell line, irradiated, senescent tdTOM+ cells
Nature of the assay: Western blot of Fgr phosphorylation in tdTOMp16+ cells (phospho-Fgr antibody). In kind it is cell-based. Here is the method: FIG. 7A-FIG. 7B show shRNA knockdown of Fgr in vitro and inhibition of activation of Fgr by TL02-59. FIG. 7A) The tdTOMp16+ cell line was transfected with three individual Fgr shRNAs. […] (Phospho-FGR (Tyr412) Rabbit Polyclonal Antibody. Company: Thermo Fisher Scientific, Catalogue #PA5-64583).
FIG. 23A-FIG. 23C. […] FIG. 23A—Irradiated tdTOMp16+ non-senescent (tdTOM−) and senescent (tdTOM+) cells were cultured on the top well of the transwell, and the target C57BL/6 stromal cells were cultured on the bottom well. Cells were treated with either vehicle or 10 nM Fgr inhibitor TL02-59 and after 10 days, target cells were harvested for RNA, and RT-qPCR was performed for TGF-β and Collagen 3 genes. FIG. 23B—Inhibition of Fgr phosphorylation by TL02-59 was confirmed by western blot from the vehicle and TL02-59-treated cell lysates of irradiated senescent (tdTOM+) cells (n=3, *P=<0.05; **P=0.01). […] NS nonsignificant), P values were calculated by t test.
The role of Fgr in fibrosis induction was next investigated by two methods of inhibition: first, pharmacologic inhibition of Fgr was applied by adding the Fgr-specific small-molecule inhibitor TL02-59 (FIG. 23A, FIG. 23B). […] Using the transwell non-contact coculture system, the effect of a specific inhibitor of Fgr TL02-59 (10 nM) on the induction of biomarkers of fibrosis in target cells by tdTOM+ senescent cells was measured for 10 days. […]
Background: In western blotting, separated proteins are transferred to a membrane and probed.

T1 sequence (P14234 whole entry): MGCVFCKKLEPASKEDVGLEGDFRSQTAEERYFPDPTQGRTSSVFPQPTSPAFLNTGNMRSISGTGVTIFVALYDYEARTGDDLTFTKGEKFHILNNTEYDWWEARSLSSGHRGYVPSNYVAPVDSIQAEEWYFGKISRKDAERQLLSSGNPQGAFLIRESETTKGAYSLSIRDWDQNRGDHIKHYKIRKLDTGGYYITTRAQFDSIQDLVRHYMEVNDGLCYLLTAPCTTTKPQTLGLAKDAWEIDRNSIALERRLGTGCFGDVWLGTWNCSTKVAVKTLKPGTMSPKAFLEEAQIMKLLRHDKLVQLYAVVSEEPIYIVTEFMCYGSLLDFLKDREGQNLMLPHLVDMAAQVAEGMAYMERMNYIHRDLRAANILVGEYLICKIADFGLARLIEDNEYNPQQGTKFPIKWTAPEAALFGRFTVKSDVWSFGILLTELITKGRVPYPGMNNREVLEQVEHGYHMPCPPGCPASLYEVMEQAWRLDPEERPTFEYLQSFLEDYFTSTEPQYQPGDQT

For the compound `CCN1CCN(Cc2ccc(NC(=O)c3ccc(C)c(Oc4ncnc5cc(OC)c(OC)cc45)c3)cc2C(F)(F)F)CC1` [TL02-59], the “phosphorylation of Fgr (Tyr412)” value (0.1 μM TL02-59, tdTOMp16+ cell line, FIG. 7B) is “Inhibition of phosphorylation of Fgr”. Besides, for the setting “vehicle vs TL02-59 treated cell lysates, FIG. 23”, the “Fgr phosphorylation in irradiated senescent (tdTOM+) cells, western blot” value was “inactivated Fgr; also recorded: inhibited”.
